{"source": "patent US20090117563A1", "about": "“Identification of TRPML3 (MCOLN3) as a Salty Taste Receptor and Use in Assays for Identifying Taste (Salty) Modulators and/or Therapeutics that Modulate Sodium Transport, Absorption or Excretion and/or Aldosterone and/or Vasopressin Production or Release” (priority 2007, published 2009)", "target": "T1, A419P TRPML3 (Homo sapiens, UniProt Q8TDD5, A419P)", "T1 construct": "expressed in transfected cells", "T1 sequence (Q8TDD5 1-553 A419P)": "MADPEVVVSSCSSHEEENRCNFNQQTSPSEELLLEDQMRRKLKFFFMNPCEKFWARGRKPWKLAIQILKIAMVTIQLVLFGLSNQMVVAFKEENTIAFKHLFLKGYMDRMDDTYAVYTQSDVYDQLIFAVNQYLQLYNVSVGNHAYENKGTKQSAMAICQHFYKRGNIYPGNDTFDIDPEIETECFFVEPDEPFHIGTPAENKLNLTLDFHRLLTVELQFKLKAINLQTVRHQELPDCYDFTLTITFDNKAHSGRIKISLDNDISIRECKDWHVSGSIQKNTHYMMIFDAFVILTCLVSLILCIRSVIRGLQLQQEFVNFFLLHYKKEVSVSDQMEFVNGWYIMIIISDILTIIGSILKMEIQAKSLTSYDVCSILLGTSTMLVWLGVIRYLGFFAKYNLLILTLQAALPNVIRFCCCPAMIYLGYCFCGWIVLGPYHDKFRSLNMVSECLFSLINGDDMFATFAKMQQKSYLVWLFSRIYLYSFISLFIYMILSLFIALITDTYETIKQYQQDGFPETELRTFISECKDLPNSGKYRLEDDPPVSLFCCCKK", "assay": "Whole cell voltage clamp, A419P TRPML3 stably expressed in CHO cells", "type": "cell-based", "conditions": "1 mM GdCl3 compared to buffer alone", "text": "The whole cell voltage clamp technique is an electrophysiology method that measures the macroscopic electrical current flowing across the entire plasma membrane though protein channels. Live mammalian cells are placed in a special microscope chamber containing extracellular solution. Guided by a micromanipulator and under visual control, a small diameter glass pipette filled with an electrically conductive salt solution is first attached to the cell membrane using gentle negative pressure resulting in a high resistance gigaOhm seal. The membrane patch within the pipette is disrupted using further suction resulting in the whole cell patch clamp configuration. The whole cell patch clamp configuration allows the combined measurement of all ion channels proteins within the membrane or macroscopic current. Using the patch clamp amplifier in combination with the whole-cell patch clamp configuration allows the operator to control the voltage, or potential difference across the entire cell membrane, as well as the both the internal and external ionic composition of the cell. […]"}
{"molecule": "[Cl][Gd]([Cl])[Cl]", "note": "[gadolinium, gadolinium chloride]", "values": [{"measurement": "effect on inward current", "setting": "listed as Gadolinium chloride", "result": "blocked"}, {"measurement": "effect on inward current", "setting": "listed as GdCl3", "result": "decrease in inward current"}]}
